In ChEMBL document CHEMBL2203203, “Structure-activity relationships of 2-arylamido-5,7-dihydro-4H-thieno[2,3-c]pyran-3-carboxamide derivatives as cannabinoid receptor agonists and their analgesic action” (Bioorg Med Chem Lett, 2012):
pEC50: −log10 of the molar value.

Assays:
[1] = target: T1, Cannabinoid receptor 2 (Homo sapiens, UniProt P34972); experiment: Agonist activity at human CB2 receptor after 4 hrs by luciferase reporter gene assay; assay type: functional
[2] = target: T1, Cannabinoid receptor 2; experiment: Agonist activity at human CB2 receptor after 4 hrs by luciferase reporter gene assay relative to control; assay type: functional
[3] = target: Cannabinoid receptor 1 (Homo sapiens, UniProt P21554); experiment: Agonist activity at human CB1 receptor after 4 hrs by luciferase reporter gene assay; assay type: functional
[4] = species: Homo sapiens; experiment: Selectivity ratio of EC50 for human CB1 receptor to EC50 for human CB2 receptor

T1 sequence (P34972 whole entry): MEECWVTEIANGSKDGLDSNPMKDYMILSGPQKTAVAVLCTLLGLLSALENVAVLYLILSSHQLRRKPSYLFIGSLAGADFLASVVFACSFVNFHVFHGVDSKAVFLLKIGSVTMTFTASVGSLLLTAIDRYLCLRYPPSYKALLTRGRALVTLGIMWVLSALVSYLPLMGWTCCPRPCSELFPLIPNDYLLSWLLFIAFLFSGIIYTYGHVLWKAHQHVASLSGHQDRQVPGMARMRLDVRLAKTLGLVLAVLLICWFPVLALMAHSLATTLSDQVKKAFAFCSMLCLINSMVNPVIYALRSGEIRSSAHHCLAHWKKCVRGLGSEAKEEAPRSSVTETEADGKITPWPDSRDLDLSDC
Sequence of Cannabinoid receptor 1 (P21554 whole entry): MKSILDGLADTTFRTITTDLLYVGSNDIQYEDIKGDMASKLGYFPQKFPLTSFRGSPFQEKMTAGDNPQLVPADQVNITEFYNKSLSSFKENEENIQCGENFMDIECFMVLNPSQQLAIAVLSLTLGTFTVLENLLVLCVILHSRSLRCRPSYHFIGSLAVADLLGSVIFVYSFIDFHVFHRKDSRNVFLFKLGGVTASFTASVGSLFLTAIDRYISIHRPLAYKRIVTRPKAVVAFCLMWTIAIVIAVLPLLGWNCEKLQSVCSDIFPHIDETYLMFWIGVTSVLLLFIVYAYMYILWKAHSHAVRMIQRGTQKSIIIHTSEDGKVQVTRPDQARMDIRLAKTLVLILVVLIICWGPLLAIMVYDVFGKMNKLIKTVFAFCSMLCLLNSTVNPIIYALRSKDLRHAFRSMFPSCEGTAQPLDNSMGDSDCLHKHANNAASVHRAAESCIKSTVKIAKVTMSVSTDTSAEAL

O=C(Nc1sc2c(c1C(=O)N1CCOCC1)CCOC2)c1ccccc1-c1ccccc1 showed a pEC50 [1] of 5.10, an Efficacy [2] of 63% and a pEC50 [3] of under 5.00.

CC(C)(C)C(=O)c1c(NC(=O)c2ccccc2OC(F)(F)F)sc2c1CCOC2 was tested, and the pEC50 [1] was 6.03, the Efficacy [2] was 102% and the Ratio EC50 [4] was over 11. It also gave a pEC50 [3] of under 5.00.

For COCCNC(=O)c1c(NC(=O)c2ccccc2OC(F)(F)F)sc2c1CCOC2, the pEC50 [1] was 7.02, the Efficacy [2] was 100% and the Ratio EC50 [4] was over 104. For the same molecule, the pEC50 [3] was under 5.00.

Work on O=C(Nc1sc2c(c1C(=O)N1CCOCC1)CCOC2)c1ccc(Cl)cc1 yielded a pEC50 [1] of under 5.00 and a pEC50 [3] of under 5.00.

CC(C)(C)CC(=O)Nc1sc2c(c1C(=O)N1CCC(F)(F)CC1)C(C)(C)CC2 gave a pEC50 [1] of 6.89, an Efficacy [2] of 96% and a Ratio EC50 [4] of over 77. The pEC50 [3] was under 5.00.

Work on COCCNC(=O)c1c(NC(=O)CN2CCCCC2)sc2c1CCCC2 yielded a pEC50 [1] of 6.82, an Efficacy [2] of 98% and a Ratio EC50 [4] of over 65. It also gave a pEC50 [3] of under 5.00.

With O=C(Nc1sc2c(c1C(=O)N1CCOCC1)CCOC2)c1ccccc1OC(F)(F)F the pEC50 [1] was 6.99, the Efficacy [2] was 106% and the Ratio EC50 [4] was over 90. For the same molecule, the pEC50 [3] was under 5.00.

O=C(Nc1sc2c(c1C(=O)O)CCOC2)c1ccccc1Cl showed a pEC50 [1] of under 5.00 and a pEC50 [3] of under 5.00.

O=C(CN1CCCC1)Nc1sc2c(c1C(=O)N1CCC(F)(F)CC1)CCCC2 showed a pEC50 [1] of 6.68, an Efficacy [2] of 87% and a Ratio EC50 [4] of over 48. It also gave a pEC50 [3] of under 5.00.

Molecule COCC(C)(C)NC(=O)c1c(NC(=O)c2ccccc2OC(F)(F)F)sc2c1CCOC2 has a pEC50 [1] of 7.00, an Efficacy [2] of 81% and a Ratio EC50 [4] of over 100. The pEC50 [3] was under 5.00.

O=C(Nc1sc2c(c1C(=O)N1CCOCC1)CCOC2)c1ccccc1OC(F)F gave a pEC50 [1] of 6.31, an Efficacy [2] of 96% and a Ratio EC50 [4] of over 20. The pEC50 [3] was under 5.00.

COCCNC(=O)c1c(NC(=O)c2ccccc2Cl)sc2c1CCC2 gave a pEC50 [1] of 6.86, an Efficacy [2] of 52% and a Ratio EC50 [4] of over 72. For the same molecule, the pEC50 [3] was under 5.00.

For O=C(CN1CCCC1)Nc1sc2c(c1C(=O)N1CC(F)(F)C1)CCCC2, the pEC50 [1] was 6.40, the Efficacy [2] was 89% and the Ratio EC50 [4] was over 25. It also gave a pEC50 [3] of under 5.00.

With COCC(C)(C)NC(=O)c1c(NC(=O)c2ccccc2C(F)(F)F)sc2c1CCOC2 the pEC50 [1] was 7.39, the Efficacy [2] was 93% and the Ratio EC50 [4] was over 243. The pEC50 [3] was under 5.00.

COC1CN(C(=O)c2c(NC(=O)CN3CCCCC3)sc3c2CCCC3)C1 gave a pEC50 [1] of 6.66, an Efficacy [2] of 92% and a Ratio EC50 [4] of over 45. The pEC50 [3] was under 5.00.

Work on O=C(Nc1sc2c(c1C(=O)N1CCOCC1)CCOC2)c1cccc(Cl)c1 yielded a pEC50 [1] of 5.85, an Efficacy [2] of 98% and a pEC50 [3] of under 5.00.

Work on O=C(Nc1sc2c(c1C(=O)N1CCOCC1)CCOC2)c1ccc(Cl)cc1Cl yielded a pEC50 [1] of 5.03, an Efficacy [2] of 108% and a pEC50 [3] of under 5.00.

Molecule O=C(Nc1sc2c(c1C(=O)NCC1CC1)CCC2)c1ccccc1Cl has a pEC50 [1] of 6.97, an Efficacy [2] of 76% and a Ratio EC50 [4] of over 94. It also gave a pEC50 [3] of under 5.00.

In the case of CC(C)(C)C(=O)c1c(NC(=O)c2ccccc2C(F)(F)F)sc2c1CCOC2, the pEC50 [1] was 6.05, the Efficacy [2] was 88% and the Ratio EC50 [4] was over 11. For the same molecule, the pEC50 [3] was under 5.00.

O=C(CN1CCCCC1)Nc1sc2c(c1C(=O)N1CC(F)(F)C1)CCCC2 gave a pEC50 [1] of 7.25, an Efficacy [2] of 103% and a Ratio EC50 [4] of over 178. It also gave a pEC50 [3] of under 5.00.

Molecule O=C(Nc1sc2c(c1C(=O)N1CCOCC1)CCOC2)c1cccc(OC(F)(F)F)c1 has a pEC50 [1] of 6.13, an Efficacy [2] of 77% and a Ratio EC50 [4] of over 10. It also gave a pEC50 [3] of under 5.00.

Work on COc1ccccc1C(=O)Nc1sc2c(c1C(=O)N1CCOCC1)CCOC2 yielded a pEC50 [1] of under 5.00 and a pEC50 [3] of under 5.00.

For COCCNC(=O)c1c(NC(=O)c2ccccc2OC(F)(F)F)sc2c1CCC(F)(F)C2, the pEC50 [1] was 7.20, the Efficacy [2] was 96% and the Ratio EC50 [4] was over 145. The pEC50 [3] was under 5.00.

COCCNC(=O)c1c(NC(=O)C2CCCC2)sc2c1CCOC2 gave a pEC50 [1] of 6.50, an Efficacy [2] of 84% and a Ratio EC50 [4] of over 32. It also gave a pEC50 [3] of under 5.00.

With COCC(C)(C)NC(=O)c1c(NC(=O)c2c(F)cccc2C(F)(F)F)sc2c1CCOC2 the pEC50 [1] was 7.13, the Efficacy [2] was 94% and the Ratio EC50 [4] was over 135. For the same molecule, the pEC50 [3] was under 5.00.
